# Measured values published in publication PMC3198391, “Mechanism of Disruption of the Amt-GlnK Complex by PII-Mediated Sensing of 2-Oxoglutarate” (PLoS ONE, 2011).
# How the values were obtained:
# Af-GlnK3 [1] = target: T1, Af-GlnK3 (Archaeoglobus fulgidus, UniProt O28524); assay: isothermal titration calorimetry, one-site model; assay type: binding; settings: read-out: Dissociation constantKD
# T1 construct: full length, pET21a, C-terminal pentahistidine tag kept, three Ala (113-115) inserted in linker before tag; E. coli BL21(DE3) Rosetta; 13 kDa monomer, homotrimer; forward primer encodes MKMVVAVI, reverse end TGDEEV; sites between monomers
# Source text: (§1) isothermal titration calorimetry, one-site model on Af-GlnK3
# Af-GlnK3 [2] = target: T2, Af-GlnK3 (Archaeoglobus fulgidus, UniProt O28524, F97I); assay: isothermal titration calorimetry, one-site model; assay type: binding; settings: read-out: Dissociation constantKD
# T2 construct: full length, pET21a, C-terminal pentahistidine tag kept, three Ala (113-115) inserted in linker before tag; E. coli BL21(DE3) Rosetta; 13 kDa monomer, homotrimer; forward primer encodes MKMVVAVI, reverse end TGDEEV; sites between monomers
# Source text: as §1
# Af-GlnK3 [3] = target: T3, Af-GlnK3 (Archaeoglobus fulgidus, UniProt O28524, F97P); assay: isothermal titration calorimetry, one-site model; assay type: binding; settings: read-out: Dissociation constantKD
# T3 construct: full length, pET21a, C-terminal pentahistidine tag kept, three Ala (113-115) inserted in linker before tag; E. coli BL21(DE3) Rosetta; 13 kDa monomer, homotrimer; forward primer encodes MKMVVAVI, reverse end TGDEEV; sites between monomers
# Source text: as §1
# [4] = target: Af-GlnK3 (Archaeoglobus fulgidus) (UniProt O28524); assay: crystal structure; vapour diffusion, sitting drop, trimer fraction from size exclusion chromatography; crystals as isolated, soaked with MgATP or MgADP, or co-crystallised with MgATP and 2-OG
# [5] = target: Af-GlnK3 (Archaeoglobus fulgidus) (UniProt O28524); assay: SEC; gel filtration during purification; 50 mM Tris-HCl pH 8.0, 300 mM NaCl
# T2 sequence (O28524 12-120 F97I): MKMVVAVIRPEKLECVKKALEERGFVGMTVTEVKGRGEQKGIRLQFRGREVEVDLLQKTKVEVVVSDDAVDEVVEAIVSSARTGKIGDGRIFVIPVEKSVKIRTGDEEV
# T1 sequence (O28524 12-120): as the sequence (O28524 12-120 F97I) above, with I86F counted along it
# T3 sequence (O28524 12-120 F97P): as the sequence (O28524 12-120 F97I) above, with I86P counted along it
# Sequence of Af-GlnK3 (from UniProt O28524 1-120) (natural protein) (O28524 whole entry): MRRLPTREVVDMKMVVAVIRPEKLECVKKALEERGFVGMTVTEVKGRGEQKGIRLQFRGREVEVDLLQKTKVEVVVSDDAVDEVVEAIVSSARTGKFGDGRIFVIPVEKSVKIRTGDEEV
Compound,Kd (Af-GlnK3 [1]) [µM],Kd (Af-GlnK3 [2]) [µM],Kd (Af-GlnK3 [3]) [µM],stoichiometry N [4],stoichiometry N [5]
Nc1ncnc2c1ncn2[C@@H]1O[C@H](COP(=O)(O)OP(=O)(O)O)[C@@H](O)[C@H]1O [ADP],568,373,102,–,–
Nc1ncnc2c1ncn2[C@@H]1O[C@H](COP(=O)(O)OP(=O)(O)OP(=O)(O)O)[C@@H](O)[C@H]1O [ATP],338,149,128,–,–
Af-GlnK3 (from UniProt O28524 1-120) (natural protein),–,–,–,3,3
